{"source": "patent US20210386111A1", "about": "“AEROSOLISABLE FORMULATION” (NICOVENTURES TRADING LIMITED, priority 2018, published 2021)", "origin": "cited, not measured here", "data": [{"substance": "2-hydroxy-propyl-β-cyclodextrin", "values": [{"measurement": "solubility in water compared to base cyclodextrins such as β-cyclodextrin", "value": "increased solubility in water"}]}]}
